Drawing on ChEMBL document CHEMBL3991601, “The target landscape of clinical kinase drugs” (Science, 2017), this text covers Kd for 18 compounds.

Activity calls are given as the source filed them.

Experiment [1] concerns the target Dual specificity protein kinase CLK4 (Homo sapiens, UniProt Q9HAZ1).
Experiment [2] has as its target T1, Protein kinase C zeta type (Homo sapiens, UniProt Q05513).
T1 sequence (Q05513 whole entry): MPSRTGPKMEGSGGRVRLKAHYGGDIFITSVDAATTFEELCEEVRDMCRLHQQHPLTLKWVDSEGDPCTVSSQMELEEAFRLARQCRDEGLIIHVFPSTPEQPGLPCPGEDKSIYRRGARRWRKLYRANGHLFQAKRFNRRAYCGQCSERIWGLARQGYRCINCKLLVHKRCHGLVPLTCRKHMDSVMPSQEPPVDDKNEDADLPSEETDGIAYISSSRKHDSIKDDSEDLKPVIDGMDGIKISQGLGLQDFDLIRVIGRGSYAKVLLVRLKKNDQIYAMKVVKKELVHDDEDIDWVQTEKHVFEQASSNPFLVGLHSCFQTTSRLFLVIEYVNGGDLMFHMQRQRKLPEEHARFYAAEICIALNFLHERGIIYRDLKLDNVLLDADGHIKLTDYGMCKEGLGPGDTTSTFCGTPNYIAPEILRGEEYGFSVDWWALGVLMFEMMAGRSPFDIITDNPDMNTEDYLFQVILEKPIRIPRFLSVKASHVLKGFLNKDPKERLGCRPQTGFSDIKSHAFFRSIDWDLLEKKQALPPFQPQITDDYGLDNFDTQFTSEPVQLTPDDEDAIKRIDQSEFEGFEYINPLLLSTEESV

Experiment [3] deals with T2, MAP/microtubule affinity-regulating kinase 4 (Homo sapiens, UniProt Q96L34).
T2 sequence (Q96L34 whole entry): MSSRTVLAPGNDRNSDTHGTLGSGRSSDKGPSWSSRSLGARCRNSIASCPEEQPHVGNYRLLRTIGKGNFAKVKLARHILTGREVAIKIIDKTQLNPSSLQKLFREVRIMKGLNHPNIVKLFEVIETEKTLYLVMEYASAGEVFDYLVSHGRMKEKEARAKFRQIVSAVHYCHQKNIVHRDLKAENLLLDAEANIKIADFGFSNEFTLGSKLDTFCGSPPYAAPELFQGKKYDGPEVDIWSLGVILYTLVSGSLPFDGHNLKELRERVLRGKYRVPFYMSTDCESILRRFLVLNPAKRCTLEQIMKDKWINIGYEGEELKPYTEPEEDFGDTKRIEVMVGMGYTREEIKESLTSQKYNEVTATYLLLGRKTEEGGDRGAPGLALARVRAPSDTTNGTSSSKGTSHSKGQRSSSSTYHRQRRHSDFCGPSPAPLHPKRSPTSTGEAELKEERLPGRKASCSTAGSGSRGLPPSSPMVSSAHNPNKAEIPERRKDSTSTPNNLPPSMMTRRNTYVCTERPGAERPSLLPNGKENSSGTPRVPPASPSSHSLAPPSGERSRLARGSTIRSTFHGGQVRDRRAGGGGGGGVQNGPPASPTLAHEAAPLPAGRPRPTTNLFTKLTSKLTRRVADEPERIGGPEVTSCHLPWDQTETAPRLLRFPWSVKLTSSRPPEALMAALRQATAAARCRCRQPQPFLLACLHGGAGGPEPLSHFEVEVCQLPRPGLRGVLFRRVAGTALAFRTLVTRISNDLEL

Experiment [4] has as its target Serine/threonine-protein kinase PAK 6 (Homo sapiens, UniProt Q9NQU5).
Experiment [5] addresses T3, Dual specificity protein kinase TTK (Homo sapiens, UniProt P33981).
T3 sequence (P33981 whole entry): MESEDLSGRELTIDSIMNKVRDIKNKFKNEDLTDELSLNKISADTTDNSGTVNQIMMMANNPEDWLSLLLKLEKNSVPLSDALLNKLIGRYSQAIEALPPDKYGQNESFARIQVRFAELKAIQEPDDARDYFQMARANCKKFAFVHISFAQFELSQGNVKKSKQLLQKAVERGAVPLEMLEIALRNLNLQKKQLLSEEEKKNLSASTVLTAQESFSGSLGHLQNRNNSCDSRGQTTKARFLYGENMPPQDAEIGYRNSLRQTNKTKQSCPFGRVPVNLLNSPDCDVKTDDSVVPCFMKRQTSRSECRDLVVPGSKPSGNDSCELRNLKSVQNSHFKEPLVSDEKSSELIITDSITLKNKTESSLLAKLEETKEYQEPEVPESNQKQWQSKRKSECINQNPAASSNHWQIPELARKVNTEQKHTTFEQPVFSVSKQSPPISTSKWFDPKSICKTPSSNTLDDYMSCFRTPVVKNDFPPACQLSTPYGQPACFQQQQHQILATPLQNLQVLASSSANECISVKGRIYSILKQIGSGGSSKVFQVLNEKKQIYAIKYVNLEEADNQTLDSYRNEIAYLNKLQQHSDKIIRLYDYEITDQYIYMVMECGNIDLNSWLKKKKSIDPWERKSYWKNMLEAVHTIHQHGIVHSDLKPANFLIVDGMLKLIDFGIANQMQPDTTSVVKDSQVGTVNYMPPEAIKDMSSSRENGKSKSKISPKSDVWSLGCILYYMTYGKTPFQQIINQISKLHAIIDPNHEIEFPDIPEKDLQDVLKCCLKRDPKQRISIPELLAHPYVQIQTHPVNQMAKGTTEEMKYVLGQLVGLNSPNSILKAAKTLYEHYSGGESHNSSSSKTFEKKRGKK
Note: in the data inactive means no Kd found up to 30 µM.

Dual specificity protein kinase CLK4, sequence (Q9HAZ1 whole entry): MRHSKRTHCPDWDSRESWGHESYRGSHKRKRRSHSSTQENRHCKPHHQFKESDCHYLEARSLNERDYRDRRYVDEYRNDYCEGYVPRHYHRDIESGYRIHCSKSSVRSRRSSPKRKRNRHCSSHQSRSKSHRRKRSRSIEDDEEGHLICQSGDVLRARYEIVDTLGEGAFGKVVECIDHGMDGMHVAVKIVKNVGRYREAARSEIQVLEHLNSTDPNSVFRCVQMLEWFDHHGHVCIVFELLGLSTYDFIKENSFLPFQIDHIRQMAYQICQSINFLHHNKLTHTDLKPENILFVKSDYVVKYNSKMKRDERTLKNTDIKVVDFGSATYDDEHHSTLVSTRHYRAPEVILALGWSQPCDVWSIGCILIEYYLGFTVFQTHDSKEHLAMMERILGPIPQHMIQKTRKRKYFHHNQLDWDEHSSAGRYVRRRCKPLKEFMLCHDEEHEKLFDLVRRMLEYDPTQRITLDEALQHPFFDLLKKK
Serine/threonine-protein kinase PAK 6, sequence (Q9NQU5 whole entry): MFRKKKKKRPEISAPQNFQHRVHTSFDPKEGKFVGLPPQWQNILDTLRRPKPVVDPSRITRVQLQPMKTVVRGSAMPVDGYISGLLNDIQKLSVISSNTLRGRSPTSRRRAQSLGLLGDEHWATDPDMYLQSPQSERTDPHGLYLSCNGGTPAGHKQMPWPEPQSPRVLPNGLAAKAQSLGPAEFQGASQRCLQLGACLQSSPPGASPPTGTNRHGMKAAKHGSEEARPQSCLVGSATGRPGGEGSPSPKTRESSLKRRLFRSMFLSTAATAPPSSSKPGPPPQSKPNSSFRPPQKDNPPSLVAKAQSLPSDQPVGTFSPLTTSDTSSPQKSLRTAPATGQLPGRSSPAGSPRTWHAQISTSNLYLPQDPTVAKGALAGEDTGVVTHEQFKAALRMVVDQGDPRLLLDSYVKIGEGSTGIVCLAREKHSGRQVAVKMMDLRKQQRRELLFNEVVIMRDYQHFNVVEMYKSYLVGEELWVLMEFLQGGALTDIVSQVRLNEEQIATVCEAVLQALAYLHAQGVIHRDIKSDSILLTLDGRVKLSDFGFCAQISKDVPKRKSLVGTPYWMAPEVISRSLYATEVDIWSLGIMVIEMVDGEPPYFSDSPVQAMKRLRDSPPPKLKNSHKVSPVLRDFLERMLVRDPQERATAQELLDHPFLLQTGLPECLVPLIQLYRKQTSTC

What is called Kd is the constant that tells how readily two partners part at equilibrium. For `COc1cccc2cc(-c3nc([C@H]4CC[C@H](C(=O)O)CC4)n4ncnc(N)c34)[nH]c12` [OSI-027], the Kd in experiment [1], in experiment [2] and in experiment [3] was > 30 µM (inactive) each time.
Turning to `Cn1c(=O)n(-c2ccc(C(C)(C)C#N)cc2)c2c3cc(-c4cnc5ccccc5c4)ccc3ncc21` [DACTOLISIB], the Kd in experiment [4], in experiment [2], in experiment [3] and in experiment [5] was > 30 µM (inactive) each time.
Regarding `C[C@@]1(C(=O)Nc2ccc(F)nc2)CCCN1c1nc(Nc2cc(C3CC3)n[nH]2)c2cccn2n1` [BMS-754807], in experiment [2], the Kd was > 30 µM (inactive).
For the compound `O=S(=O)(c1cccc2c(O)nccc12)N1CCCNCC1` [HYDROXYFASUDIL], the Kd in experiment [1], in experiment [2] and in experiment [5] was > 30 µM (inactive) in each case.
Consider `COc1cc2c(Oc3ccc4[nH]c(C)cc4c3F)ncnc2cc1OCCCN1CCCC1` [CEDIRANIB], for which the Kd in experiment [2] is > 30 µM (inactive).
Consider `CCN1CCN(Cc2ccc(Nc3ncc(F)c(-c4cc(F)c5nc(C)n(C(C)C)c5c4)n3)nc2)CC1` [ABEMACICLIB], for which the Kd is 0.013 µM in experiment [1], > 30 µM (inactive) in experiment [2], > 30 µM (inactive) in experiment [3] and > 30 µM (inactive) in experiment [5].
On to `Cn1cnc2c(F)c(Nc3ccc(Br)cc3Cl)c(C(=O)NOCCO)cc21` [SELUMETINIB], for which, in experiment [2], the Kd was > 30 µM (inactive).
`NC(=O)c1ccc(N(C(N)=O)c2c(F)cccc2F)nc1-c1ccc(F)cc1F` [VX-702]: the Kd in experiment [1], in experiment [4], in experiment [2] and in experiment [3] was > 30 µM (inactive) each time.
With `COCCN1CCN(Cc2ccc(-c3n[nH]c4c3C(=O)c3c(NC(=O)NN5CCOCC5)cccc3-4)cc2)CC1` [RGB-286638], the Kd in experiment [1] is 0.002 µM; in experiment [4], > 30 µM (inactive); in experiment [2] it was > 30 µM (inactive); in experiment [3] it was > 30 µM (inactive).
Turning to `COc1cccc(Nc2ncnn3ccc(CN4CC[C@@H](N)[C@H](O)C4)c23)c1` [BMS-690514], the Kd in experiment [2], in experiment [3] and in experiment [5] was > 30 µM (inactive) each time.
Turning to `CC1(C)CNc2cc(NC(=O)c3cccnc3NCc3ccncc3)ccc21` [MOTESANIB], in experiment [2], the Kd is > 30 µM (inactive).
Regarding `COc1cc(Nc2ncc(F)c(Nc3ccc4c(n3)N(COP(=O)(O)O)C(=O)C(C)(C)O4)n2)cc(OC)c1OC` [FOSTAMATINIB], the Kd in experiment [2], in experiment [3] and in experiment [5] was > 30 µM (inactive) in each case.
Take `C#Cc1cccc(Nc2ncnc3cc4c(cc23)OCCOCCOCCO4)c1` [ICOTINIB]: the Kd in experiment [1], in experiment [4], in experiment [2] and in experiment [3] was > 30 µM (inactive) each time.
Turning to `C=CCn1c(=O)c2cnc(Nc3ccc(N4CCN(C)CC4)cc3)nc2n1-c1cccc(C(C)(C)O)n1` [ADAVOSERTIB], the Kd in experiment [4], in experiment [2], in experiment [3] and in experiment [5] was > 30 µM (inactive) throughout.
On to `CN(C)C/C=C/C(=O)Nc1cc2c(Nc3ccc(F)c(Cl)c3)ncnc2cc1O[C@H]1CCOC1` [AFATINIB], for which the Kd in experiment [2] is > 30 µM (inactive).
Turning to `Cc1cc(-c2cc(OC(=O)c3ccccc3)ccc2Cl)cc2nnc(Nc3ccc(OCCN4CCCC4)cc3)nc12` [TG100-801], the Kd in experiment [2], in experiment [3] and in experiment [5] was > 30 µM (inactive) throughout.
`Cc1c(Cn2c(C)nc3c(C(=O)O)cc(N4CCOCC4)cc32)cccc1C(F)(F)F` [GSK-2636771]: the Kd in experiment [1], in experiment [2], in experiment [3] and in experiment [5] was > 30 µM (inactive) each time.
With `CC1(COc2ccc3c(c2)ncn3-c2ccc3cccc(N4CCC(N)CC4)c3n2)COC1` [CRENOLANIB], the Kd in experiment [4] was > 30 µM (inactive); in experiment [2] it was > 30 µM (inactive); in experiment [3] it was 0.025 µM (active).
